Measurements: patent publication US20230255970A1, “COMPOSITIONS AND METHODS FOR TREATING PROLIFERATIVE DISEASES” (The Broad Institute, Inc., priority 2020, published 2023)

Experiments:
[1] = test system: U2OS cells; experiment: Cell count in U2OS Cell Painting images; format: cell-based, human
Description: (§1) Of these, analysis of the 220 constructs that were most closely representative of the annotated full-length transcripts was prioritized. […] Not all genes are likely to impact cellular morphology given the limitation of the experiment; using a single cell line at a single time point under a single set of conditions and stained with six fluorescent labels.
(§2) This standardization was done plate wise, based on the mean and standard deviation of the controls at profile level for the compound dataset. […] The signatures were then obtained by averaging the replicate profiles feature-wise. Pearson correlation was used on the aligned signatures of a gene and compound to score their connection.

[2] = target: PAX8 (Homo sapiens, UniProt Q06710); conditions: per PubChem; cited from earlier work
[3] = test system: KP230 cells; experiment: Proliferation assay, KP230 cells; format: cell-based, mouse; conditions: 10 μM daily for 72 hours
Description: (§3) YAP1 cell culture and treatments: Eisinger lab: Murine KP230 cells, a Yap1-dependent cancer cell line, were derived from a tumor from the KP mouse model (Kras^G12/D; Trp53^f/fl), as described in Eisinger-Mathason, T. S. K. et al., Proc. Natl. Acad. Sci. U.S.A 112 (2015): E3402-11, which is hereby incorporated by reference in its entirety. STS-109 UPS cells were derived from a human UPS tumor and validated by Rebecca Gladdy, MD (Sinai Health System, Toronto, Ontario, Canada). TC32 cells were a gift from Patrick Grohar, MD, PhD (Children's Hospital of Philadelphia). HT-1080, HCT-116, and HEK293T cells were purchased from ATCC. KP230, HT-1080, and HEK-293T cells were grown in DMEM with 10% FBS, 1% L-glutamine, and 1% penicillin/streptomycin (P/S). STS-109 cells were cultured in DMEM with 20% FBS, 1% L-glutamine, and 1% P/S. TC32 cells were grown in RPMI with 10% FBS, 1% L-glutamine, and 1% P/S. HCT-116 cells were cultured in McCoy's 5A medium with 10% FBS and 1% P/S. All cells were confirmed to be negative for mycoplasma contamination and were maintained in an incubator at 37C with 5% CO2. For experimental purposes, cells were cultured for up to 20 passages before being discarded, and were grown to approximately 50% confluence to circumvent the effects of high cell density on Yap1 expression and activity. All cell lines in the Eisinger laboratory were treated with 10 μM of each inhibitor or an equivalent volume of DMSO every 24 hours for 3 days, except for STS-109 cells, which were treated daily for 8 days.
(§4) NB4A treatment: Cells were treated with 10 μM of each inhibitor or an equivalent volume of DMSO every 24 hours for 3-8 days, and counted with a hemocytometer with trypan blue exclusion daily (KP230, HT-1080, TC32, HCT-116), or every 2 days (STS-109).

[4] = test system: H9 human pluripotent stem cells; experiment: qPCR of YAP1, CTGF and CYR61 in H9 hPSCs; format: cell-based; conditions: 24 hrs
Description: H9 hPSCs (WiCell) were maintained on vitronectin (Thermo Fisher)-coated plates in Essential 8 (E8) medium. The cells were routinely passaged using 0.5 mM EDTA and treated with 5 μM Y-27632 dihydrochloride (Tocris) on the first day. For testing the effects of the small molecules, H9 hPSCs were seeded at 50K cells/cm^2 on vitronectin-coated plates in E8 medium supplemented with 5 μM Y-27632 dihydrochloride (day 0). On day 1, the medium was switched to E8 medium. On day 2, the medium was switched to E8 medium supplemented with the small molecules. Following overnight incubation, the cells were collected for subsequent analysis on day 3.
The RNA was extracted using TRIzol (Life Technologies) and Direct-zol™ RNA MiniPrep kit (Zymo Research) as per manufacturer instructions. The RNA was reverse transcribed using iScript cDNA synthesis kit (Bio-Rad). The qPCR was performed on CFX Connect (Bio-Rad) using iTaq Universal SYBR Green Supermix (Bio-Rad). GAPDH was used as a reference gene for normalization. The relative gene expression levels were determined using the ddCt method.

[5] = test system: TRAF2 overexpression in U2OS cells; experiment: Cell Painting morphological profile matching to TRAF2 overexpression; format: cell-based, human
Description: as §1, §2

[6] = test system: YAP1 overexpression in U2OS cells; experiment: Cell Painting morphological profile matching to YAP1/TAZ overexpression signature; format: cell-based, human
Description: as §1
FIG. 2 provides an example characterization of matching the morphological signature of a gene query to the signature(s) of compounds in a library. Connections which show both positive and negative large correlations are considered as matches.
as §2

[7] = test system: KP230 cells; experiment: Percent viability of KP230 cells; format: cell-based, mouse; conditions: 10 μM daily for 72 hours
Description: as §3, with “For experimental purposes, cells were cultured for up to 20 passages before being discarded, and were grown to approximately 50% confluence to circumvent the effects of high cell density on Yap1 expression and activity. All cell lines in the Eisinger laboratory were treated with 10 μM of each inhibitor or an equivalent volume of DMSO every 24 hours for 3 days, except for STS-109 cells, which were treated daily for 8 days.” left out
as §4

[8] = test system: HEK293, HepG2, A549 cells; conditions: per PubChem, read-out: AC50, inhibition of cell proliferation; cited from earlier work
[9] = Pearson correlation of Cell Painting signatures, U2OS cells

Chain of PAX8 (Q06710 whole entry, species assumed): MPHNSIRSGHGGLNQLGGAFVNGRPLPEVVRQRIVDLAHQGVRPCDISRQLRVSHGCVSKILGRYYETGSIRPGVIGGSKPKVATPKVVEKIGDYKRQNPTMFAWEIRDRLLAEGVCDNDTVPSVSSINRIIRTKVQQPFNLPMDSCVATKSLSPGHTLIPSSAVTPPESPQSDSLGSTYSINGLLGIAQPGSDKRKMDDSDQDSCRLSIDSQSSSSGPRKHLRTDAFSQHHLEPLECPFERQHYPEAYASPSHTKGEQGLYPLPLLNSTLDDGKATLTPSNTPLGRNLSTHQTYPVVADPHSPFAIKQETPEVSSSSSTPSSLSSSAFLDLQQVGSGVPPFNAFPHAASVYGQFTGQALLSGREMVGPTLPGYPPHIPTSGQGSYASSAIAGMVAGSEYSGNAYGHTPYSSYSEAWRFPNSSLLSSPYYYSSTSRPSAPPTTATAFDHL

Q: What does the source list for `CO[C@@H]1CN(C)C(=O)c2ccc(NC(=O)c3ccc(-c4ccccc4)cc3)cc2OC[C@H](C)NC[C@@H]1C` [BRD-K28862419, N-[(4S,7S,8S)-8-methoxy-4,7,10-trimethyl-11-oxo-2-oxa-5,10-diazabicyclo[10.4.0]hexadeca-1(12),13,15-trien-15-yl]-4-phenylbenzamide]?
A: proliferation in the U2OS Cell Painting images [1]: −2.0 st dev; Avg. Cell Count z-score ([1]; U2OS Cell Painting): −2.044; PAX8 inhibition [2]: inhibits PAX8; proliferation [3]: inhibited KP230 cell proliferation; mRNA levels of hippo pathway members (YAP1, CTGF, CYR61) [4]: did not dramatically impact; Cell Painting profile correlation with TRAF2 overexpression [5]: 0.41; Corr. to TRAF2 [5, 9]: 0.4068; Cell Painting profile correlation with YAP1 overexpression [6]: −0.43; Corr. to YAP1 cluster [6, 9]: −0.4317; cell viability [7]: modestly yet significantly reduced; AC50 [8]: 5 to 18 µM
